Where a SMILES comes first, the peptide text is derived from it. Bridges are numbered along the chain shown (N, C = ends). [ ]: non-standard residue; d: D form. Cha = N[C@@H](CC1CCCCC1)C(=O)O
Assays:
[1] = Circular dichroism helicity of peptide in isolation (homotypic); assay type: physicochemical; conditions: peptide in isolation
Procedure: (§1) Circular dichroism (CD) spectroscopy was conducted with an Applied Photophysics Chirascan CD spectroploarimeter (Leatherhead, U.K.) using a 200 µL sample in a CD cell with a 1 mm path length (Hellma, Müllheim Germany). Samples contained 150 µM total peptide concentration suspended in 10 mM potassium phosphate and 100 mM potassium fluoride at pH 7. The CD spectra of the homodimeric and heterodimeric complexes were scanned between 300 nm and 190 nm at 20°C (for both pre- and post-melt samples to check for reversibility of unfolding) and at −8°C to assess helical levels and coiled-coil structure (see Figure 4).
(§2) Supplementary file pone.0059415.s005.doc: Table S1 Helical Data obtained via Circular Dichroism. Shown are A) homo and B) heteromeric samples. […] A ratio higher than 1 is generally indicated evidence that a coiled coil has formed, while a ratio of less than 0.9 is taken to indicate the presence of isolated helices. Shown in column two are the calculated fractional helicities taken from the Molar Residue Ellipticity at […]. Fraction helicity (ƒH) can be calculated as ƒH = (θ222−θc)/(θ222∞−θc) where θ222∞ = (−44000+250*T)*(1−k/Nr) and θc = 2220–(53*T). In these equations the wavelength dependent constant k = 2.4 (at 222 nm), Nr = the number of residues, and T = 20 degrees Celsius (293 K). The 222/208 ratio is used to provide evidence on whether the helices are monomeric or are adopting a quaternary structure. Measured helicity for the original JunWCANDI peptide and for the template on which the hydrocarbon constraints have been introduced. […] The N- and C-capping motifs have been removed for the constrained since they are considered to be largely redundant upon their introduction. (DOC) Click here for additional data file.

[2] = test system: cJun; assay: CD spectra and thermal denaturation of peptide-cJun mixtures (specificity); assay type: binding; conditions: equimolar with cJun
Procedure: To establish if the truncated and constrained peptides retained the interaction specificity of the JunWCANDI parent peptide, peptides capable of interacting with cFos were also incubated at equimolar concentrations with cJun and monitored via CD spectra. […] In addition, a dimer exchange experiment was performed for the most helical peptide 24. Spectra for a cJun-peptide solution and a cFos solution should, upon mixing, generate an averaged spectrum if there was no dimer exchange. […] Spectra for both mixtures can be superimposed (Figure S4).
Supplementary file pone.0059415.s002.tiff: Figure S2 Raw thermal melting data for homo and heterodimeric complexes with cJun for constrained peptides 1 , 2 , 8 , 9, 10 , 11, 12, 17, 20, 22, and 24 . […] (TIFF) Click here for additional data file.
Supplementary file pone.0059415.s003.tiff: Figure S3 CD spectra as MRE both in isolation and as a mixture with cJun. From these raw data it is also clear that no interaction is occurring between constrained peptides and cJun. Rather, specta appear as averages of their homodimeric components (i.e. superimpose with the homomeric averages). We observe no heteromeric helical signal (red) that exceeds the average (black dotted line) of cJun (black) and the constrained peptide (blue), that would be anticipated for a non-interacting pair. (TIFF) Click here for additional data file.
Supplementary file pone.0059415.s005.doc: Table S1 Helical Data obtained via Circular Dichroism. Shown are A) homo and B) heteromeric samples. […] A ratio higher than 1 is generally indicated evidence that a coiled coil has formed, while a ratio of less than 0.9 is taken to indicate the presence of isolated helices. Shown in column two are the calculated fractional helicities taken from the Molar Residue Ellipticity at […]. Fraction helicity (ƒH) can be calculated as ƒH = (θ222−θc)/(θ222∞−θc) where θ222∞ = (−44000+250*T)*(1−k/Nr) and θc = 2220–(53*T). […] Measured helicity for the original JunWCANDI peptide and for the template on which the hydrocarbon constraints have been introduced. […]

[3] = biological target: T1, cFos (Homo sapiens, UniProt P01100); assay: Thermal denaturation (CD at 222 nm) of peptide-cFos mixtures; assay type: binding; conditions: judged from thermal denaturation profiles and CD spectra of mixtures with cFos
Procedure: (§3) Thermal denaturation data and spectra for the cFos homotypic complex (black), helix constrained peptide (blue), and heteromeric complex (red) were recorded using 200 µL of sample at 150µM total peptide concentration (Figure 4, Figure S1). Next, 100 µL of each solution was mixed and the spectra taken such that the final total peptide concentration was also 150 µM. More experimental procedures can be found in File S1.

[4] = biological target: T1, cFos; assay: Circular dichroism spectra of peptide-cFos mixtures; assay type: binding; conditions: mixture with cFos
Procedure: as §1, §3, §2

T1 sequence (P01100 whole entry): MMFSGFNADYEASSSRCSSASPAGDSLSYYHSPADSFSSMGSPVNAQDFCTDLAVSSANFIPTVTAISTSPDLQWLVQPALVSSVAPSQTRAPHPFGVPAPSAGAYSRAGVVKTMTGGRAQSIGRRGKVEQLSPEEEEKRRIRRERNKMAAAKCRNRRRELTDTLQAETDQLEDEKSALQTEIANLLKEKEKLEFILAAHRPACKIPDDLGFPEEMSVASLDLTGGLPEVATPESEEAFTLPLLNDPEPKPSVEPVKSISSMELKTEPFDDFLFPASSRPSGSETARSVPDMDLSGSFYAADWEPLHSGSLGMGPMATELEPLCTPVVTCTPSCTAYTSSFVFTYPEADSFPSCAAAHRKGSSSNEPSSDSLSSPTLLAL

Homotypic Ɵ222/208 (20ºC) ([1]; CD ratio, 20 °C): 0.91
Fraction helical (ƒH), homotypic ([1]; from CD molar residue ellipticity at 222 nm, 20°C, 150 µM, pH 7): 0.51
Peptide-cFos Ɵ222/208 (20ºC) ([4]; CD ratio, 20 °C): 0.92
Peptide-cFos Fraction helical (ƒH) ([4]; CD 222 nm, 20°C, 150 µM total peptide): 0.49
Compound: CC[C@H](C)[C@H](NC(=O)[C@H](Cc1c[nH]cn1)NC(=O)[C@@H]1CC(=O)NCCCC[C@H](NC(=O)[C@H](C)NC(=O)[C@H](CCCCN)NC(=O)[C@H](CO)NC(=O)[C@H](CCCNC(=N)N)NC(=O)[C@H](CC(C)C)NC(=O)[C@@H]2CC(=O)NCCCC[C@H](NC(=O)[C@H](CCCCN)NC(=O)[C@H](CC3CCCCC3)NC(C)=O)C(=O)N[C@@H](CCC(=O)O)C(=O)N[C@@H]([C@@H](C)CC)C(=O)N[C@@H](Cc3ccc(O)cc3)C(=O)N2)C(=O)N[C@@H](CCSC)C(=O)N[C@@H](CC(C)C)C(=O)N[C@@H](CCCNC(=N)N)C(=O)N1)C(=O)N[C@@H](C)C(=O)N[C@@H](CCC(N)=O)C(=O)N[C@@H](CC1CCCCC1)C(N)=O [compound 20] (Ac-[Cha]KKEIYDLRSKAKMLRDHIAQ[Cha]-NH2; lactam 3-7, 13-17)
interaction with cJun (in words) [2]: none of the peptides form a stable interaction with cJun
interaction with cFos (in words) [3]: profiles consistent with a strong interaction affinity for cFos

Reference: publication PMC3609778, “Truncated and Helix-Constrained Peptides with High Affinity and Specificity for the cFos Coiled-Coil of AP-1” (PLoS ONE, 2013)
